# Tested on: Hepatitis C virus
# Assay: Antiviral activity against Hepatitis C virus infected in human Huh7.5.1 cells after 72 hrs by focus formation assay
# Type: functional, cell-based, Hepacivirus hominis
# Conditions: Huh-7.5.1, 72 h
row,IC50 [µM],Compound
1,10.8,N#CC[C@H]1C(C(=O)c2ccccc2)=CC=CN1Cc1ccccc1
2,15.4,C=CC[C@]1(C(=O)c2ccccc2)C=CCN(Cc2ccccc2)[C@H]1CC#N

# Source: ChEMBL document CHEMBL4033617, “Stereo-controlled synthesis of functionalized tetrahydropyridines based on the cyanomethylation of 1,6-dihydropyridines and generation of anti-hepatitis C virus agents” (Bioorg Med Chem, 2017)
